According to paper PMC10908623, “X-ray structure and characterization of a probiotic Lactobacillus rhamnosus Probio-M9 L-rhamnose isomerase” (Applied Microbiology and Biotechnology, 2024):

What was measured:
[1] = biological target: T1, LrL-RhI (L. rhamnosus Probio-M9 L-rhamnose isomerase) (Lacticaseibacillus rhamnosus, UniProt A0A171J5T1); assay: X-ray crystal structure of the complex (soaking), […] Å; type: binding; conditions: 30% (w/v) D-allose soak; Mn2+; crystals at pH 6.5; catalytic site; also a surface site
T1 construct: gene rhaA; full length, 426 residues, 48707 Da; synthesized gene in pQE60, C-terminal His-tag kept; E. coli JM109; homotetramer
T1 sequence (A0A171J5T1 1-426): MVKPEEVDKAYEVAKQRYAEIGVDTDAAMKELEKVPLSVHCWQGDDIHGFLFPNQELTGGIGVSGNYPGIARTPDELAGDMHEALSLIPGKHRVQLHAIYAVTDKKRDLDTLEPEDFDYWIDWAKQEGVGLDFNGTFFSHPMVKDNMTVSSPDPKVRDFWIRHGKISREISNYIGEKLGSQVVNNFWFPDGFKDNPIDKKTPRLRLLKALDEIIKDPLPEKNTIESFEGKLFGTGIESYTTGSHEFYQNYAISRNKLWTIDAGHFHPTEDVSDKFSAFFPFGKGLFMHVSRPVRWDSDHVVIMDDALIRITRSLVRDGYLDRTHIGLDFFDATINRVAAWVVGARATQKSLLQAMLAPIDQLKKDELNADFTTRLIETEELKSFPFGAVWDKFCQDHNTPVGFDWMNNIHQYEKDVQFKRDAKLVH

[2] = biological target: T1, LrL-RhI (L. rhamnosus Probio-M9 L-rhamnose isomerase); assay: as above; type: binding; conditions: 30% (w/v) D-allulose soak; Mn2+; crystals at pH 6.5; catalytic site; also a surface site
[3] = biological target: the molecule itself; assay: crystal structure; sitting-drop vapor diffusion at 20 C, 0.1 M MES pH 6.5, 15% PEG550MME; LrL-RhI alone and crystals soaked in 30% (w/v) L-rhamnose, D-allulose or D-allose; space group P212121, four molecules in the asymmetric unit

OC[C@H]1OC(O)[C@H](O)[C@H](O)[C@@H]1O (stereo partly drawn) [D-allose]
X-ray crystal structure of the complex (soaking), 1.71 Å [1]: The bound D-allose exhibits a pyranose form and appears to be β-D-allopyranose

OC[C@]1(O)OC[C@@H](O)[C@@H](O)[C@H]1O [D-allulose]
X-ray crystal structure of the complex (soaking), 1.73 Å [2]: The bound D-allulose shows a ring-opened structure.

B1: L-rhamnose isomerase from Lactobacillus rhamnosus Probio-M9 (enzyme, UniProt A0A171J5T1 1-426, looked up)
chain: T1 sequence (A0A171J5T1 1-426)
notes: L-rhamnose isomerase (putative LrL-RhI) of Lactobacillus rhamnosus Probio-M9, 426 amino acid residues, 48707 Da; also called LrL-RhI; L-RhI; not shown: His-tag, C-terminal, kept
stoichiometry N [3]: 4
